Measured values: patent US20240199546A1, “INHIBITORS OF SOLUTE CARRIER FAMILY 6A MEMBER 19 (SLC6A19) AND METHODS OF USE THEREOF” (Maze Therapeutics, Inc., priority 2022, published 2024)

Assays:
human SLC6A19 and TMEM27 [1] = biological target: T1, human SLC6A19 and TMEM27 (Homo sapiens, UniProt Q695T7); assay: 13C6,15N-isoleucine uptake in CHO cells with doxycycline-inducible expression of human SLC6A19 and TMEM27, RapidFire mass spectrometry (Example B-2); format: cell-based; details: read-out: SLC6A19_RapidFire Uptake Assay IC50
T1 construct: expressed in transfected cells
T1 sequence (Q695T7 1-634): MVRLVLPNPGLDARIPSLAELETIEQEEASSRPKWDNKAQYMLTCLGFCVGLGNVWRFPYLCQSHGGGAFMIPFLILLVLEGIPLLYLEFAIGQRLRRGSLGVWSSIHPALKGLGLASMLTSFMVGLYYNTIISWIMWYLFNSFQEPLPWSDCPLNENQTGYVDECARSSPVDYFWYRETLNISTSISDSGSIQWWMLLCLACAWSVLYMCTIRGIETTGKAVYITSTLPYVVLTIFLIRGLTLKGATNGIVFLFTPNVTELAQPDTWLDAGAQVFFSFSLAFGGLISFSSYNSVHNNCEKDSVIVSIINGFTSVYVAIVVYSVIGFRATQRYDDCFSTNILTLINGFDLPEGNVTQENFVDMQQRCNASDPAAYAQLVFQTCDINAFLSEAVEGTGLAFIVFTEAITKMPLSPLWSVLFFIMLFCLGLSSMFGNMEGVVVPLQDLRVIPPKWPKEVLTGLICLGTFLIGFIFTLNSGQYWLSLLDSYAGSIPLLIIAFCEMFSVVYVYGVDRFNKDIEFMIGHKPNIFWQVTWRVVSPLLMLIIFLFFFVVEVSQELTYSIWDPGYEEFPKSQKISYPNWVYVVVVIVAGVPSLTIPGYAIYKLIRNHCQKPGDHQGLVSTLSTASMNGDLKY
T1 sequence (Q9HBJ8 15-222 partner): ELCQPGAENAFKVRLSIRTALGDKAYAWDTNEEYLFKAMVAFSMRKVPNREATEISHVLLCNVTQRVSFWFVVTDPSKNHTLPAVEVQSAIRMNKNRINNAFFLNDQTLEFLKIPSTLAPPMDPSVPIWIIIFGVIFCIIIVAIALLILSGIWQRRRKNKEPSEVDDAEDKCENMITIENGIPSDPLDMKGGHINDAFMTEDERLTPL
Method in brief: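 CHO cells induced overnight with doxycycline to express human SLC6A19 plus TMEM27; 20 min preincubation with compound (10-point 2-fold series, duplicate) at 37 °C in HEPES buffer pH 7.2, then 20 min with 13C6,15N-isoleucine. Intracellular label quantified by RapidFire MS against 13C-leucine standard; positive control defined 100% inhibition.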

human SLC6A19 and TMEM27 [2] = biological target: T1, human SLC6A19 and TMEM27; assay: Radiolabelled (3H) leucine uptake in CHO cells with doxycycline-inducible expression of human SLC6A19 and TMEM27 (Example B-1); format: cell-based; details: CHO cells with doxycycline-inducible expression of human SLC6A19 and TMEM27, read-out: SLC6A19_Radioligand Uptake Assay IC50
Method in brief: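 CHO cells were induced with doxycycline for 18 h at 37 °C, washed in HBSS, then exposed to compounds for 1 h: 8-point, 3-fold dilutions in duplicate, 0.5% DMSO final. Uptake measured by scintillation counting after 2 h shaking. Activity normalized with positive control as 0% and DMSO as 100%.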

SMILES	IC50 (human SLC6A19 and TMEM27 [1])	IC50 (human SLC6A19 and TMEM27 [2])
CC(=O)NCc1cc2cc(F)c(OCc3cccc(F)n3)cc2[nH]1 [Compound 226, N-((5-fluoro-6-((6-fluoropyridin-2-yl)methoxy)-1H-indol-2-yl)methyl)acetamide]	960 nM	1120 nM
Cc1cnc(COc2cc3[nH]c(CNC(=O)C4(C)CC4)cc3cc2Cl)s1 [Compound 63, N-((5-chloro-6-((5-methylthiazol-2-yl)methoxy)-1H-indol-2-yl)methyl)-1-methylcyclopropane-1-carboxamide]	56 nM	299 nM
CC1(C(=O)NCc2cc3c(F)cc(OCc4cscn4)cc3[nH]2)CC1 [Compound 29, N-((4-fluoro-6-(thiazol-4-ylmethoxy)-1H-indol-2-yl)methyl)-1-methylcyclopropane-1-carboxamide]	45 nM	60 nM
CC1(C(=O)NCc2cc3cc(F)c(NCc4ccon4)cc3[nH]2)CC1 [Compound 524, N-((5-fluoro-6-((isoxazol-3-ylmethyl)amino)-1H-indol-2-yl)methyl)-1-methylcyclopropane-1-carboxamide]	570 nM	400 nM
O=C(NCc1cc2cc(Cl)c(NCc3ccon3)cc2[nH]1)N1CCCC1 [Compound 413, N-((5-chloro-6-((isoxazol-3-ylmethyl)amino)-1H-indol-2-yl)methyl)pyrrolidine-1-carboxamide]	239 nM	276 nM
O=C(NCc1cc2cc(F)c(OCc3cscn3)cc2[nH]1)C1(F)CC1 [Compound 230, 1-fluoro-N-((5-fluoro-6-(thiazol-4-ylmethoxy)-1H-indol-2-yl)methyl)cyclopropane-1-carboxamide]	22.9 nM	69.6 nM
Cc1nc(COc2cc3[nH]c(CNC(=O)C4(C)CC4)cc3cc2F)co1 [Compound 547, N-((5-fluoro-6-((2-methyloxazol-4-yl)methoxy)-1H-indol-2-yl)methyl)-1-methylcyclopropane-1-carboxamide]	314 nM	363 nM
CC(C)C(=O)NCc1cc2cc(F)c(OCc3cscn3)cc2[nH]1 [Compound 135, N-((5-fluoro-6-(thiazol-4-ylmethoxy)-1H-indol-2-yl)methyl)isobutyramide]	49 nM	82 nM
CNC(=O)NCc1cc2cc(F)c(OCc3cocn3)cc2[nH]1 [Compound 215, 1-((5-fluoro-6-(oxazol-4-ylmethoxy)-1H-indol-2-yl)methyl)-3-methylurea]	3890 nM	977 nM
Cn1ncc(COc2cc3[nH]c(CNC(=O)N4CCC4)cc3cc2F)n1 [Compound 409, N-((5-fluoro-6-((2-methyl-2H-1,2,3-triazol-4-yl)methoxy)-1H-indol-2-yl)methyl)azetidine-1-carboxamide]	2290 nM	1180 nM
Cc1cc(COc2cc3[nH]c(CNC(=O)C4(C)CC4)cc3cc2C(F)(F)F)no1 [Compound 58, 1-methyl-N-((6-((5-methylisoxazol-3-yl)methoxy)-5-(trifluoromethyl)-1H-indol-2-yl)methyl)cyclopropanecarboxamide]	28 nM	162 nM
CC1(C(=O)NCc2cc3cc(Cl)c(NCc4ccon4)cc3[nH]2)CC1 [Compound 151, N-((5-chloro-6-((isoxazol-3-ylmethyl)amino)-1H-indol-2-yl)methyl)-1-methylcyclopropane-1-carboxamide]	173 nM	182 nM
Cc1cc(COc2cc3[nH]c(CNC(=O)C4(C)CC4)cc3cc2C)no1 [Compound 14, 1-methyl-N-((5-methyl-6-((5-methylisoxazol-3-yl)methoxy)-1H-indol-2-yl)methyl)cyclopropane-1-carboxamide]	120 nM	111 nM
Cc1nc(COc2cc3[nH]c(CNC(=O)C(C)C)cc3cc2F)co1 [Compound 551, N-((5-fluoro-6-((2-methyloxazol-4-yl)methoxy)-1H-indol-2-yl)methyl)isobutyramide]	1760 nM	954 nM
CC1(C(=O)NCc2cc3cc(F)c(OCc4ccccn4)cc3[nH]2)CC1 [Compound 330, N-((5-fluoro-6-(pyridin-2-ylmethoxy)-1H-indol-2-yl)methyl)-1-methylcyclopropane-1-carboxamide]	123 nM	167 nM
CC1(C(=O)NCc2cc3cc(Cl)c(OCc4ccc5ccoc5c4)cc3[nH]2)CC1 [Compound 461, N-((6-(benzofuran-6-ylmethoxy)-5-chloro-1H-indol-2-yl)methyl)-1-methylcyclopropane-1-carboxamide]	989 nM	2700 nM
CC1(C(=O)NCc2cc3cc(F)c(NCc4cscn4)cc3[nH]2)CC1 [Compound 523, N-((5-fluoro-6-((thiazol-4-ylmethyl)amino)-1H-indol-2-yl)methyl)-1-methylcyclopropane-1-carboxamide]	239 nM	208 nM
CC1(C(=O)NCc2cc3cc(C(F)(F)F)c(OCc4ccon4)cc3[nH]2)CC1 [Compound 59, N-((6-(isoxazol-3-ylmethoxy)-5-(trifluoromethyl)-1H-indol-2-yl)methyl)-1-methylcyclopropane-1-carboxamide]	153 nM	214 nM
CC1(C(=O)NCc2cc3cc(F)c(OCc4cccnc4F)cc3[nH]2)CC1 [Compound 332, N-((5-fluoro-6-((2-fluoropyridin-3-yl)methoxy)-1H-indol-2-yl)methyl)-1-methylcyclopropane-1-carboxamide]	187 nM	269 nM
Cc1cc(COc2cc3[nH]c(CNC(=O)C4(C)CC4)cc3cc2Cl)no1 [Compound 45, N-((5-chloro-6-((5-methylisoxazol-3-yl)methoxy)-1H-indol-2-yl)methyl)-1-methylcyclopropane-1-carboxamide]	75 nM	180 nM
CC1(C(=O)NCc2cc3cc(Cl)c(OCc4ccon4)cc3[nH]2)CCC1 [Compound 504, N-((5-chloro-6-(isoxazol-3-ylmethoxy)-1H-indol-2-yl)methyl)-1-methylcyclobutane-1-carboxamide]	406 nM	391 nM
Cc1cc(COc2cc3[nH]c(CNC(=O)C4CC4)cc3cc2Cl)no1 [Compound 133, N-((5-chloro-6-((5-methylisoxazol-3-yl)methoxy)-1H-indol-2-yl)methyl)cyclopropanecarboxamide]	45 nM	82 nM
Cc1cc2cc(CNC(=O)N3CCC3)[nH]c2cc1OCc1ccon1 [Compound 532, N-((6-(isoxazol-3-ylmethoxy)-5-methyl-1H-indol-2-yl)methyl)azetidine-1-carboxamide]	632 nM	509 nM
O=C(NCc1cc2cc(Cl)c(OCc3cscn3)cc2[nH]1)C1CC1 [Compound 147, N-((5-chloro-6-(thiazol-4-ylmethoxy)-1H-indol-2-yl)methyl)cyclopropanecarboxamide]	33 nM	67 nM
CC(=O)NCc1cc2cc(F)c(NCc3ccon3)cc2[nH]1 [Compound 228, N-((5-fluoro-6-((isoxazol-3-ylmethyl)amino)-1H-indol-2-yl)methyl)acetamide]	11200 nM	3170 nM
CC1(C(=O)NCc2cc3cc(Cl)c(OCc4ccsc4)cc3[nH]2)CC1 [Compound 25, N-((5-chloro-6-(thiophen-3-ylmethoxy)-1H-indol-2-yl)methyl)-1-methylcyclopropane-1-carboxamide]	33 nM	124 nM
